# Like-named read-outs stand apart in the source and are kept apart here.
# Experiments:
# [1] = molecular target: TcHR96h (nuclear hormone receptor HR96h); assay: microscale thermophoresis (MST), supported by DARTs; R448A mutation reduces affinity […]; type: binding, Tetranychus cinnabarinus
# [2] = molecular target: TcHR96h (nuclear hormone receptor HR96h); assay: as above; type: binding, Tetranychus cinnabarinus; remark: listed apart in the source
Kd [1],Structure (SMILES),Kd [2]
138 µM,CC(C)(C)c1ccc(C(C#N)C(=O)c2ccccc2C(F)(F)F)cc1 (centres unmarked) [AB-1],–
–,COCCOC(=O)C(C#N)(C(=O)c1ccccc1C(F)(F)F)c1ccc(C(C)(C)C)cc1 (centres unmarked) [cyflumetofen],189 µM

# From publication PMC10501649, “A detoxification pathway initiated by a nuclear receptor TcHR96h in Tetranychus cinnabarinus (Boisduval)” (PLOS Genetics, 2023)
